These are literature values, as cited in patent US12371405B1, “Isoindol-sulfilimine compound and use as a sigma-2 receptor inhibitor thereof” (SHANGHAI UNIVERSITY OF MEDICINE AND HEALTH SCIENCES, priority 2024, dated 2025).

The target in one data set is sigma-2 receptor (Homo sapiens, UniProt Q5BJF2). The conditions noted are these: cited from earlier work.
For data set [1], the system named is cerebrospinal fluid β-amyloid (aβ). The conditions noted are these: at 1 h after administration; cited from earlier work.
The conditions of data set [2]: cited from earlier work.

sigma-2 receptor, sequence (Q5BJF2 whole entry, species assumed): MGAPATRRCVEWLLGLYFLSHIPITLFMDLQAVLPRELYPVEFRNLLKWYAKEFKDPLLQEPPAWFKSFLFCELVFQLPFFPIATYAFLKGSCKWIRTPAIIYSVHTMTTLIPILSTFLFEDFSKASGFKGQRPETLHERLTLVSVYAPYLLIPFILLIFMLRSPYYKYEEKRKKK

Consider `CC(C)(C)Oc1cc(CCC(C)(C)N2Cc3ccc(S(C)(=O)=O)cc3C2)ccc1O` [CT1812], for which the “sigma-1 and sigma-2 receptor selectivity” value at sigma-2 receptor was “poor”. In addition, the “concentration of cerebrospinal fluid β-amyloid (aβ)” value in data set [1] is “increase”. For the same molecule, the oral bioavailability result in data set [2] was “poor”.
